For data set [1], the system named is human hepatocytes. As to conditions: 10 µM.
Procedure: (§2) The metabolic stability of the compounds was tested using human hepatocytes.
(§3) • 1. The compounds and hepatocytes were incubated for 240 minutes in the following system.
(§4) The culture was inactivated with 2 volumes of acetonitrile (0.1% FA) and then centrifuged for 15 minutes at 16,000 g. • 3. The supernatant was analyzed by LC-MS/MS for prototype compounds and metabolites.
Data set [2] concerns the target T1, RARα (Homo sapiens, UniProt P10276).
T1 construct: expressed in transfected cells; host or cells: HEK-293 (ATCC #CRL-1573)
T1 sequence (P10276 1-462): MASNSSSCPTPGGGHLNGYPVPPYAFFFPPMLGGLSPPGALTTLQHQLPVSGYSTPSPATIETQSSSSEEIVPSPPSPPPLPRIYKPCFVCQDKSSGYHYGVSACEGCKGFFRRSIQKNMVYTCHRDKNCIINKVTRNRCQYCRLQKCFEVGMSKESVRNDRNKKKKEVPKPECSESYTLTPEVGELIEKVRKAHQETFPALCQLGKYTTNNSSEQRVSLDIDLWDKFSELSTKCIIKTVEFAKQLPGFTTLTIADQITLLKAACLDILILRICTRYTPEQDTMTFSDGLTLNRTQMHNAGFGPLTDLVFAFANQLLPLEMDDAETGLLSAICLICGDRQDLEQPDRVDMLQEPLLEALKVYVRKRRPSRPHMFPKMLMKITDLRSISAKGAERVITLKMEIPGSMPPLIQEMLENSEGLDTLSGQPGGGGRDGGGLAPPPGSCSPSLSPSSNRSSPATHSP
The data set can be described thus: Agonist activity on RARα, dual luciferase reporter gene assay in transfected HEK-293 cells. It is filed as cell-based. As to conditions: 24 h incubation, firefly/Renilla luciferase signal. As for the experimental part:
(§1) • 1. Day 1: Cell culture. The culture dish was treated with trypsin, and then cells at an appropriate concentration were inoculated into 10 mL of culture medium. Cell culture conditions: 37° C., 5% CO2, humid environment. • 2. Day 3: Transfection with FuGENE transfection reagent. A transfection mixture was prepared using the method of the supplier's instructions, then the tube was shaken vigorously to mix well, and the transfection mixture was left to incubate for 15 minutes at room temperature. The mixture was treated with trypsin to determine the cell density, and the cell suspension was appropriately diluted to the appropriate volume and density. The appropriate transfection reagent mixture was added thereto, and the cell suspension was added to a 96-well plate at 100 μL per well. The 96-well plate was incubated for 24 hours under the cell culture conditions in step 1. • 3. Day 4: Addition of test compound. The compound was formulated into a DMSO stock solution at a concentration of 210× and diluted to make a solution at a concentration of 21× by the addition of 9 times the amount of solvent. 5 μL of the compound solution at a concentration of 21× was added to each well and incubated for 24 hours under the same conditions as step 1. • 4. Day 5: Plate reading. The Dual Luciferase Reporter Gene Assay System was left at room temperature for 30 minutes prior to use, and […] was added to each well of the 96-well plate to detect the intensity of firefly luciferin in an appropriate manner. Afterwards, Stop&Glo reagent was added to detect the intensity of Renilla luciferin. • 5. Data processing. Signal=intensity of firefly luciferin/intensity of Renilla luciferin, multiple of agonist activation=compound signal/baseline signal (the intensity of the baseline signal was obtained from DMSO solution without the compound). pEC50 values were obtained by processing the data with GraphPad Prism, which were further converted to EC50 values.
(In general: A reporter such as luciferase makes a cellular process visible.)

In data set [3] the test system is human hepatocytes. In words: Hepatocyte stability (metabolic stability in human hepatocytes, LC-MS/MS). The following applies: for Normalized area (240 minutes), prototype compound peak (molecular weight shift 0.00): human hepatocytes 1.0 × 10^6 cells/mL, 37° C.
Procedure: as §2, §3, §4
For data set [4], the target named is T2, RARγ (Homo sapiens, UniProt P13631).
T2 construct: expressed in transfected cells; host or cells: HEK-293 (ATCC #CRL-1573)
T2 sequence (P13631 1-454): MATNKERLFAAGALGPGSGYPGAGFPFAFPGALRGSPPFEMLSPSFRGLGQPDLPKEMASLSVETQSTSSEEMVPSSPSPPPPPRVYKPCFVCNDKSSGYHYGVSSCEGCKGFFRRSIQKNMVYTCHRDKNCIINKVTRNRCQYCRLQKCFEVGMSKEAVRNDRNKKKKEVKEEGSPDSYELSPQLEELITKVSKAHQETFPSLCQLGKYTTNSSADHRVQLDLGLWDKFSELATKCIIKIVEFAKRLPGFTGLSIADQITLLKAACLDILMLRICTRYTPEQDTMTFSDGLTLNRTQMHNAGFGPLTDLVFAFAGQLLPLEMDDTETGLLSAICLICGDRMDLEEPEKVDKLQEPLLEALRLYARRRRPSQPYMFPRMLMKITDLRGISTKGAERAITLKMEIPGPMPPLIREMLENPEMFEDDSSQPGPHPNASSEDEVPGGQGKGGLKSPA
The data set can be described thus: Agonist activity on RARγ, dual luciferase reporter gene assay in transfected HEK-293 cells. It is filed as cell-based. As to conditions: for EC50: HEK-293 cells, 24 h incubation, firefly/Renilla luciferase signal; for selectivity on RARγ compared with Trifarotene: RARγ versus RARα, from Table 2; for agonist activity on RARγ compared with Trifarotene: comparison of Table 2 EC50 values. On the procedure: as §1

A word on the EC50: it is the concentration needed to bring the measured effect to its halfway point. A lower EC50 goes with higher potency in that assay. Turning to `C[Si](C)(C)c1cc(-c2cc(-c3ccc(C(=O)O)cc3)ccc2OCCO)ccc1N1CCCC1` [Compound I-1, 4′-(2-hydroxyethoxy)-4′-(pyrrolidin-1-yl)-3′-(trimethylsilyl)-[1,1′:3′,1′-terphenyl]-4-carboxylic Acid], the “Normalized area (240 minutes), Peak 4 of compound I-1 (molecular weight shift 0.02)” value in data set [1] was found to be 68.15%. This compound yielded an EC50 in data set [2] of 64 nM. For the same compound, the “prototype compound remaining after 240 minutes of incubation in hepatocytes” value in data set [3] (human hepatocytes) is “less than 1%”. The “Normalized area (240 minutes), prototype compound peak (molecular weight shift 0.00)” value in data set [3] (10 μM) is reported as 0.12%. In addition, in data set [4], the EC50 amounted to 0.88 nM, the “selectivity on RARγ compared with Trifarotene” value (from here on “selectivity on RARγ”) is recorded as “better than that of Trifarotene” and the “agonist activity on RARγ compared with Trifarotene” value is given as “equal to or stronger than that of Trifarotene”.

On to `C[Si](C)(C)c1cc(-c2cc(-c3ccc(C(=O)O)cc3)ccc2OCCCO)ccc1N1CCCC1` [Compound I-2, 4′-(3-hydroxypropoxy)-4″-(pyrrolidin-1-yl)-3″-(trimethylsilyl)-[1,1′:3′,1″-terphenyl]-4-carboxylic acid], for which the EC50 in data set [2] turned out to be 15.5 nM. Also, in data set [4], it took 0.77 nM to reach a half-maximal effect (EC50), the “selectivity on RARγ” value is listed as “better than that of Trifarotene” and the “agonist activity on RARγ compared with Trifarotene” value is recorded as “equal to or stronger than that of Trifarotene”.

`C[Si](C)(C)c1cc(-c2cc(-c3ccc(C(=O)O)cc3)ccc2OCCCCO)ccc1N1CCCC1` [Compound I-3, 4′-(4-hydroxybutoxy)-4″-(pyrrolidin-1-yl)-3″-(trimethylsilyl)-[1,1′:3′,1″-terphenyl]-4-carboxylic acid]: the EC50 in data set [2] is 382 nM; in data set [4], 9.08 nM. In data set [4], the “selectivity on RARγ” value is given as “better than that of Trifarotene”.

Turning to `C[Si]1(C)CC[Si](C)(C)c2cc(-c3cc(-c4ccc(C(=O)O)cc4)ccc3OCCO)ccc21` [Compound I-5, 4′-(2-hydroxyethoxy)-3′-(1,1,4,4-tetramethyl-1,2,3,4-tetrahydrobenzo[b][1,4]disilan-6-yl)-[1,1′-biphenyl]-4-carboxylic acid], the EC50 in data set [2] amounted to 18.5 nM. In data set [4], it took 1.05 nM to reach a half-maximal effect (EC50), the “selectivity on RARγ” value is listed as “better than that of Trifarotene” and the “agonist activity on RARγ compared with Trifarotene” value is given as “equal to or stronger than that of Trifarotene”.

Regarding `CC(C)(C)c1cc(-c2cc(-c3ccc(C(=O)O)cc3)ccc2OCCO)ccc1N1CCCC1` [Trifarotene], the “prototype compound remaining after 240 minutes of incubation in hepatocytes” value in data set [3] (human hepatocytes) turned out to be 13.57%. In addition, the “Normalized area (240 minutes), prototype compound peak (molecular weight shift 0.00)” value in data set [3] (10 μM) is reported as 13.57%. Besides, the “Normalized area (240 minutes), Peak 3 of Trifarotene (molecular weight shift 16.00)” value in data set [3] (human hepatocytes, 10 μM, metabolite peak m/z 476.24) came to 54.29%. Besides, the “Normalized area (240 minutes), Peak 1 of Trifarotene (molecular weight shift 31.99)” value in data set [3] (human hepatocytes, 10 μM, metabolite peak m/z 492.24, retention time 4.18 minutes) came to 9.35%. The “Normalized area (240 minutes), Peak 4 of Trifarotene (molecular weight shift 31.99)” value in data set [3] (human hepatocytes, 10 μM, metabolite peak m/z 492.24, retention time 7.76 minutes) was 9.10%. The “Normalized area (240 minutes), Peak 2 of Trifarotene (molecular weight shift 192.03)” value in data set [3] (human hepatocytes, 10 μM, metabolite peak m/z 652.27) is on record as 9.98%.

These data come from US20240217992A1, “RETINOIC ACID RECEPTOR AGONIST, PREPARATION METHOD THEREFOR, INTERMEDIATE, PHARMACEUTICAL COMPOSITION AND USE” (JIANGXI KERUI PHARMACEUTICAL CO., LTD., priority 2021, published 2024).
